# Data as given in PMC5118987 (Antimicrobial Agents and Chemotherapy, 2016).
# Assays:
# [1] = tested on: HIV-1 patient-derived isolates with INSTI resistance mutations; test: PhenoSense IN assay, 47 patient-derived isolates; assay type: cell-based
# Experimental: Forty-seven resistance test vectors containing patient-derived IN coding regions were constructed using standard Monogram Biosciences protocols. […] The fold change from the NL4-3 wild-type reference vector values was determined. Statistical significance was determined using the Student two-tailed t test.
# HIV-1 clonal variants = test: PhenoSense integrase assay, clonal variants from EVG/COBI/FTC/TDF virologic failures; assay type: cell-based
# Text: Clonal Analysis of HIV-1 from Patients. Plasma from 16 patients treated in Studies GS-US-236-0102 and GS-US-236-0103 with confirmed virologic failure and resistance development in the HIV-1 integrase gene were sent to Monogram Biosciences (South San Francisco, CA) for clonal analysis. The HIV-1 RNA was isolated and the cDNA was synthesized using Monogram proprietary primers. Using proprietary primers, PCR amplification of the entire protease, reverse transcriptase, and integrase coding regions of the pol gene were performed. PCR products were inserted into T/A cloning vectors.
# Approximately 20 clones were chosen per patient sample for sequencing using proprietary primers. A subset of clones was chosen for phenotypic analysis based on the presence of INSTI resistance mutations. Resistance test vectors containing the patient-derived integrase coding region from selected clones were constructed using standard Monogram Biosciences protocols. […]
# values) in these clones were obtained through a contract study by Monogram Biosciences using the PhenoSense integrase assay. The fold-change from the NL4-3 wild-type reference vector values was determined.
# in vitro = conditions: human, CC50 in Primary Human Hepatocytes
# HIV-2 CDC 310319 = test: Antiviral assay against HIV-2 isolate in fresh human PBMCs (RT endpoint); conditions: Human immunodeficiency virus 2, PBMC
# HIV-1 IIIb [2] = test: microbe, parasite or virus in culture; conditions: Human immunodeficiency virus 1, IIIB, MT4
# Experimental: (§2) Each compound series was prepared several times independently in quadruplicate to capture the variations in Hill slope associated with preparation of compound serial dilutions. The assay was performed in a 384-well format. MT-4 cells were infected in bulk at the same MOI as that described above, and the plates were developed with CellTiter-Glo reagent 5 days postinfection.
# HIV-1 IIIb [3] = test: Antiviral assay in MT-2 cells; assay type: cell-based
# Experimental: (§1) For the antiviral assay utilizing MT-2 and MT-4 cells, 50 μl of a 2× test concentration of 5-fold serially diluted compound in culture medium with 10% FBS was added to each well of a 96-well plate (9 concentrations) in triplicate. MT-2 and MT-4 cells were infected with HIV-1 IIIb at a multiplicity of infection (MOI) of 0.01 for 3 h. Fifty microliters of infected cell suspension in culture medium with 10% FBS (∼1.5 × 10^4 cells) then was added to each well containing 50 μl of diluted compound. The plates were then incubated at 37°C for 5 days. After 5 days of incubation, 100 μl of CellTiter-Glo reagent (Promega Biosciences, Inc., Madison, WI) was added to each well containing MT-2 or MT-4 cells. Cell lysis was carried out by incubation at room temperature for 10 min and chemiluminescence was read. For compound cytotoxicity assessment, the protocol was identical except that uninfected cells were used and compounds were serially diluted 3-fold.
# [4] = Cytotoxicity assay in MT-2 cells; assay type: cell-based; conditions: human, uninfected MT-2 cells
# Experimental: as §1
# Influenza A/PC/1/73 = test: microbe, parasite or virus in culture; assay type: cell-based; conditions: NHBE
# [5] = Cytotoxicity assay in MT-4 cells; assay type: cell-based; conditions: human, uninfected MT-4 cells
# Experimental: as §1
# HIV-1 IIIb [6] = tested on: HIV-1 IIIb
# Experimental: as §2
# [7] = target: T1, HIV-1 IN strand transfer activity (Human immunodeficiency virus type 1 group M subtype B, UniProt P04585); test: IN strand transfer assay (HTRF); assay type: biochemical; conditions: purified recombinant HIV-1 IN; mean ± SD, 3 experiments; read-out: IC50 Inhibition of strand transfer
# T1 construct: Recombinant IN containing an N-terminal 6His tag was expressed in BL21(DE3) pLysS bacteria; 6His (N); made in house; host or cells: E. coli BL21(DE3) pLysS
# Experimental: The strand transfer activity of IN was measured using an assay based on homogeneous time-resolved fluorescence resonance energy transfer (HTRF) ([34]) and has been previously described in detail ([35]). An HTRF-based 3′-processing assay was performed essentially as described for the IN strand transfer assay using a specially designed nonprocessed donor DNA in the absence of target DNA ([35]).
# [8] = tested on: HIV-1 integration in MT-2 cells (HIV-1 IIIb); conditions: HIV-1 IIIb-infected MT-2, relative to mock-treated control
# Experimental: Quantification of 2-long terminal repeat (LTR) circles, late reverse transcription products, and integration junctions was adapted from a previously described method ([30]). […] Three hours after viral adsorption, the infected cells were washed twice with 20 ml of RPMI 1640 medium containing 10% FBS and antibiotics and seeded in 6-well plates in 2 ml of culture medium at 1 × 10^6 cells per well. […] These plates were incubated at 37°C for either 12 h (for late reverse transcription product quantification) or 24 h (for 2-LTR circle and Alu-LTR product quantification), after which time the cells were harvested for total DNA isolation. DNA was extracted from each well using the QIAamp DNA minikit (Qiagen, Valencia, CA) and collected as a 100-μl eluate. TaqMan real-time PCR-quantified 2-LTR junctions (2-LTR circles), late reverse transcription products, and integration junctions (Alu-LTR) were normalized to the level of host globin gene in each sample. Quantification by PCR was performed on the ViiA 7 real-time PCR system (Life Technologies, Grand Island, NY).
compound,measurement,setting,value
"Cc1nnc(C(=O)NC(C)(C)c2nc(C(=O)NCc3ccc(F)cc3)c(O)c(=O)n2C)o1 [RAL, raltegravir]",% of Isolates (Fold-Change vs. WT) (2.5 to <5),[1]; 47 patient-derived isolates,4%
same,% of Isolates (Fold-Change vs. WT) (5 to <10),[1]; 47 patient-derived isolates,4%
same,% of Isolates (Fold-Change vs. WT) (≤2.5),[1]; 47 patient-derived isolates,2%
same,% of Isolates (Fold-Change vs. WT) (≥10),[1]; 47 patient-derived isolates,89%
same,Fold-Change vs. WT Mean,[1]; 47 patient-derived isolates,> 100 fold change
same,Fold-Change vs. WT Median,[1]; 47 patient-derived isolates,> 143 fold change
same,Susceptibility (Fold-change vs. WT),"[1]; isolate entry 1: L74M,T97A",8.48 fold-change
same,Susceptibility (Fold-change vs. WT),"[1]; isolate entry 2: L68V,Y143C",4.06 fold-change
same,Susceptibility (Fold-change vs. WT),"[1]; isolate entry 3: L68L/V,L74M,Y143R",> 143 fold-change
same,Susceptibility (Fold-change vs. WT),[1]; isolate entry 4: T97A,1.78 fold-change
same,Susceptibility (Fold-change vs. WT),"[1]; isolate entry 5: T97A,F121Y",112 fold-change
same,Susceptibility (Fold-change vs. WT),"[1]; isolate entry 6: T97A,Y143R",> 143 fold-change
same,Susceptibility (Fold-change vs. WT),[1]; isolate entry 7: F121Y,12 fold-change
same,Susceptibility (Fold-change vs. WT),"[1]; isolate entry 8: L74M,N155H",89 fold-change
same,Susceptibility (Fold-change vs. WT),"[1]; isolate entry 9: T97A,N155H",53 fold-change
same,Susceptibility (Fold-change vs. WT),"[1]; isolate entry 10: T97A,Y143C",> 143 fold-change
same,Susceptibility (Fold-change vs. WT),"[1]; isolate entry 11: E92Q,E157E/Q",4.8 fold-change
same,Susceptibility (Fold-change vs. WT),[1]; isolate entry 12: E92Q,18 fold-change
same,Susceptibility (Fold-change vs. WT),"[1]; isolate entry 13: N155H,E157E/Q",19 fold-change
same,Susceptibility (Fold-change vs. WT),[1]; isolate entry 14: E92Q,6.7 fold-change
same,Susceptibility (Fold-change vs. WT),[1]; isolate entry 15: Y143R,22 fold-change
same,Susceptibility (Fold-change vs. WT),[1]; isolate entry 16: Y143R,16 fold-change
same,Susceptibility (Fold-change vs. WT),[1]; isolate entry 17: N155H,107 fold-change
same,Susceptibility (Fold-change vs. WT),[1]; isolate entry 18: Y143C,14 fold-change
same,Susceptibility (Fold-change vs. WT),"[1]; isolate entry 19: T97A,Y143C",> 143 fold-change
same,Susceptibility (Fold-change vs. WT),"[1]; isolate entry 20: Q148R,E138A",43 fold-change
same,Susceptibility (Fold-change vs. WT),"[1]; isolate entry 21: N155H,G163R",15 fold-change
same,Susceptibility (Fold-change vs. WT),"[1]; isolate entry 22: E92Q,N155H",> 143 fold-change
same,Susceptibility (Fold-change vs. WT),"[1]; isolate entry 23: E138K,Q148R",54 fold-change
same,Susceptibility (Fold-change vs. WT),"[1]; isolate entry 24: G140S,Q148H",> 143 fold-change
same,Susceptibility (Fold-change vs. WT),"[1]; isolate entry 25: E92Q,N155H,G163R",> 143 fold-change
same,Susceptibility (Fold-change vs. WT),"[1]; isolate entry 26: G140A,Q148R",88 fold-change
same,Susceptibility (Fold-change vs. WT),"[1]; isolate entry 27: G140S,Q148H",> 143 fold-change
same,Susceptibility (Fold-change vs. WT),"[1]; isolate entry 28: G140S,Q148H",> 143 fold-change
same,Susceptibility (Fold-change vs. WT),"[1]; isolate entry 29: G140S, Q148H",> 143 fold-change
same,Susceptibility (Fold-change vs. WT),"[1]; isolate entry 30: E138K,G140S,Q148H",> 143 fold-change
same,Susceptibility (Fold-change vs. WT),"[1]; isolate entry 31: G140S,Q148H",> 143 fold-change
same,Susceptibility (Fold-change vs. WT),"[1]; isolate entry 32: G140S,Q148H, G163K",> 143 fold-change
same,Susceptibility (Fold-change vs. WT),"[1]; isolate entry 33: G140S,Q148H",> 143 fold-change
same,Susceptibility (Fold-change vs. WT),"[1]; isolate entry 34: E138K,G140S,Q148H",> 143 fold-change
same,Susceptibility (Fold-change vs. WT),[1]; isolate entry 35: E138K G140S Q148H,> 114 fold-change
same,Susceptibility (Fold-change vs. WT),"[1]; isolate entry 36: G140S,Q148H",> 143 fold-change
same,Susceptibility (Fold-change vs. WT),"[1]; isolate entry 37: G140S,Q148R",> 143 fold-change
same,Susceptibility (Fold-change vs. WT),"[1]; isolate entry 38: G140S,Q148H",> 143 fold-change
same,Susceptibility (Fold-change vs. WT),"[1]; isolate entry 39: G140S,Q148H",> 143 fold-change
same,Susceptibility (Fold-change vs. WT),"[1]; isolate entry 40: T97A,G140S,Q148H",> 143 fold-change
same,Susceptibility (Fold-change vs. WT),"[1]; isolate entry 41: E138K,G140C,Q148R",> 143 fold-change
same,Susceptibility (Fold-change vs. WT),"[1]; isolate entry 42: L74L/M,G140A,Q148R",> 143 fold-change
same,Susceptibility (Fold-change vs. WT),"[1]; isolate entry 43: G140S,Q148R",> 143 fold-change
same,Susceptibility (Fold-change vs. WT),"[1]; isolate entry 44: G140S,Q148H,E138A",> 143 fold-change
same,Susceptibility (Fold-change vs. WT),"[1]; isolate entry 45: T97A,G140S,Q148H",> 143 fold-change
same,Susceptibility (Fold-change vs. WT),"[1]; isolate entry 46: L74M,G140C,Q148R",> 143 fold-change
same,Susceptibility (Fold-change vs. WT),"[1]; isolate entry 47: E138K,G140A,Q148K",> 143 fold-change
same,Susceptibility (Fold-change vs. WT),HIV-1 clonal variants; clone 6041-11: E92Q,3.67 fold-change
same,Susceptibility (Fold-change vs. WT),HIV-1 clonal variants; clone 6101-12: Q148R,32 fold-change
same,Susceptibility (Fold-change vs. WT),HIV-1 clonal variants; clone 6101-14: N155H,6.56 fold-change
same,Susceptibility (Fold-change vs. WT),HIV-1 clonal variants; clone 6101-15: E92Q,4.41 fold-change
same,Susceptibility (Fold-change vs. WT),"HIV-1 clonal variants; clone 6322-1: N155H, G163R",15 fold-change
same,Susceptibility (Fold-change vs. WT),HIV-1 clonal variants; clone 6322-11: N155H,11 fold-change
same,Susceptibility (Fold-change vs. WT),HIV-1 clonal variants; clone 6503-10: E92Q,3.88 fold-change
same,Susceptibility (Fold-change vs. WT),HIV-1 clonal variants; clone 6545-7: N155H,15 fold-change
same,Susceptibility (Fold-change vs. WT),HIV-1 clonal variants; clone 6648-7: E92Q,4.20 fold-change
same,Susceptibility (Fold-change vs. WT),HIV-1 clonal variants; clone 6648-10: E92Q,4.20 fold-change
same,Susceptibility (Fold-change vs. WT),HIV-1 clonal variants; clone 6648-11: E92Q,3.97 fold-change
same,Susceptibility (Fold-change vs. WT),HIV-1 clonal variants; clone 6667-1: E92Q,5.09 fold-change
same,Susceptibility (Fold-change vs. WT),"HIV-1 clonal variants; clone 7299-11: Q148R, G140C",24 fold-change
same,Susceptibility (Fold-change vs. WT),HIV-1 clonal variants; clone 7332-10: None,0.79 fold-change
same,Susceptibility (Fold-change vs. WT),HIV-1 clonal variants; clone 7425-11: E92Q,1.95 fold-change
same,Susceptibility (Fold-change vs. WT),"HIV-1 clonal variants; clone 7476-5: T66I, E157Q",1.63 fold-change
same,Susceptibility (Fold-change vs. WT),"HIV-1 clonal variants; clone 7476-9: T66I, T97A, E157Q",2.45 fold-change
same,Susceptibility (Fold-change vs. WT),HIV-1 clonal variants; clone 7562-12: N155H,13 fold-change
"O=C(NCc1c(F)cc(F)cc1F)c1cn2c(c(O)c1=O)C(=O)N1[C@H]3CC[C@H](C3)O[C@@H]1C2 [BIC, Bictegravir]",CC50,in vitro; Donor 1,> 100000 nM
same,CC50,in vitro; Donor 2,> 100000 nM
same,EC50,HIV-2 CDC 310319,1.7 ± 1 nM
same,EC50,HIV-1 IIIb [2],1.9 ± 0.6 nM
same,EC50,"HIV-1 IIIb [3]; Human immunodeficiency virus 1, IIIB, MT2, T-cell lines and primary human T lymphocytes, read-out: 50% effective concentrations",1.5 to 2.4 nM
same,EC50,"HIV-1 IIIb [3]; Human immunodeficiency virus 1, MT2, 120 h, MT-2 cells, HIV-1 IIIb, 5 days, read-out: EC50",1.5 ± 0.2 nM
same,CC50 at 5 days,[4],10300 nM
same,EC50,Influenza A/PC/1/73,53500 nM
same,CC50 at 5 days,[5],3660 nM
same,PAEC95 (protein binding-adjusted EC95),HIV-1 IIIb [6]; EC95 in MT-4 with human serum shift,361 nM
same,EC95,"HIV-1 IIIb [6]; MT-4 cells, calculated using Hill slope",8.3 nM
same,IC50,[7],7.5 ± 0.3 nM
same,EC50,"HIV-1 clonal variants; Human immunodeficiency virus 1, NL43, read-out: mean EC50 of wild-type virus",1.55 nM
same,reduction of authentic integration products in infected cells,[8],100 fold
